Test results published in ChEMBL document CHEMBL1201862, “PubChem BioAssay data set” (2004).
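Method: 48-hour compound exposure of cells in 96-well plates, five concentrations, linear interpolation of endpoints. The concentration for 50% growth inhibition is given as GI50.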 Calls of active or inactive are those of the source. No stated cut-off is given here; in the data, active = GI50 up to about 1.1 µM and inactive = higher.

How the values were obtained:
Experiment in all cases: NCI tumour cell line growth inhibition, 48 h
786-0 = tested on: 786-0
A549 = tested on: A549
ACHN = tested on: ACHN
CCRF-CEM = tested on: CCRF-CEM
COLO 205 = tested on: COLO 205
DMS-273 = tested on: DMS-273
EKVX = tested on: EKVX
HCC 2998 = tested on: HCC 2998
HCT-116 = tested on: HCT-116
HCT-15 = tested on: HCT-15
HL-60 = tested on: HL-60
HOP-18 = tested on: HOP-18
HOP-62 = tested on: HOP-62
HOP-92 = tested on: HOP-92
HT-29 = tested on: HT-29
IGROV-1 = tested on: IGROV-1
KM-20L2 = tested on: KM-20L2
LOX IMVI = tested on: LOX IMVI
LXFL 529 = tested on: LXFL 529
M19-MEL = tested on: M19-MEL
MOLT-4 = tested on: MOLT-4
Malme-3M = tested on: Malme-3M
NCI-H226 = tested on: NCI-H226
NCI-H23 = tested on: NCI-H23
NCI-H460 = tested on: NCI-H460
OVCAR-3 = tested on: OVCAR-3
OVCAR-5 = tested on: OVCAR-5
OVCAR-8 = tested on: OVCAR-8
RPMI-8226 = tested on: RPMI-8226
RXF 393 = tested on: RXF 393
SF-268 = tested on: SF-268
SF-295 = tested on: SF-295
SF-539 = tested on: SF-539
SK-MEL-28 = tested on: SK-MEL-28
SK-MEL-2 = tested on: SK-MEL-2
SK-OV-3 = tested on: SK-OV-3
SN12C = tested on: SN12C
SNB-19 = tested on: SNB-19
SNB-75 = tested on: SNB-75
SNB-78 = tested on: SNB-78
SR = tested on: SR
SW-620 = tested on: SW-620
TK-10 = tested on: TK-10
U-251 = tested on: U-251
UACC-257 = tested on: UACC-257
UACC-62 = tested on: UACC-62
UO-31 = tested on: UO-31
XF498 = tested on: XF498
A498 = tested on: A498
CAKI-1 = tested on: CAKI-1
DLD-1 = tested on: DLD-1
DMS-114 = tested on: DMS-114
K562 = tested on: K562
KM12 = tested on: KM12
M14 = tested on: M14
NCI-H522 = tested on: NCI-H522
OVCAR-4 = tested on: OVCAR-4
SK-MEL-5 = tested on: SK-MEL-5

SMILES: NC1CCCCC1.O=C(O)C(CP(=O)(O)O)=C(Cl)Cl
- GI50 (786-0): > 100 µM (inactive)
- GI50 (A549): > 100 µM (inactive)
- GI50 (ACHN): > 100 µM (inactive)
- GI50 (CCRF-CEM): > 100 µM (inactive)
- GI50 (COLO 205): > 100 µM (inactive)
- GI50 (DMS-273): > 100 µM (inactive)
- GI50 (EKVX): > 100 µM (inactive)
- GI50 (HCC 2998): > 100 µM (inactive)
- GI50 (HCT-116): > 100 µM (inactive)
- GI50 (HCT-15): > 100 µM
- GI50 (HL-60): > 100 µM (inactive)
- GI50 (HOP-18): > 100 µM (inactive)
- GI50 (HOP-62): > 100 µM (inactive)
- GI50 (HOP-92): > 100 µM (inactive)
- GI50 (HT-29): > 100 µM (inactive)
- GI50 (IGROV-1): > 100 µM (inactive)
- GI50 (KM-20L2): > 100 µM (inactive)
- GI50 (LOX IMVI): > 100 µM (inactive)
- GI50 (LXFL 529): > 100 µM (inactive)
- GI50 (M19-MEL): > 100 µM (inactive)
- GI50 (MOLT-4): > 100 µM (inactive)
- GI50 (Malme-3M): > 100 µM (inactive)
- GI50 (NCI-H226): > 100 µM (inactive)
- GI50 (NCI-H23): > 100 µM (inactive)
- GI50 (NCI-H460): > 100 µM (inactive)
- GI50 (OVCAR-3): > 100 µM (inactive)
- GI50 (OVCAR-5): > 100 µM (inactive)
- GI50 (OVCAR-8): > 100 µM (inactive)
- GI50 (RPMI-8226): > 100 µM (inactive)
- GI50 (RXF 393): > 100 µM (inactive)
- GI50 (SF-268): > 100 µM (inactive)
- GI50 (SF-295): > 100 µM (inactive)
- GI50 (SF-539): > 100 µM (inactive)
- GI50 (SK-MEL-28): > 100 µM (inactive)
- GI50 (SK-MEL-2): > 100 µM (inactive)
- GI50 (SK-OV-3): > 100 µM (inactive)
- GI50 (SN12C): > 100 µM (inactive)
- GI50 (SNB-19): > 100 µM (inactive)
- GI50 (SNB-75): > 100 µM (inactive)
- GI50 (SNB-78): > 100 µM (inactive)
- GI50 (SR): > 100 µM (inactive)
- GI50 (SW-620): > 100 µM (inactive)
- GI50 (TK-10): > 100 µM (inactive)
- GI50 (U-251): > 100 µM (inactive)
- GI50 (UACC-257): > 100 µM (inactive)
- GI50 (UACC-62): > 100 µM (inactive)
- GI50 (UO-31): > 100 µM (inactive)
- GI50 (XF498): > 100 µM (inactive)

SMILES: CC(C)OP(=O)(OC(C)C)/C(=N/Nc1ccc([N+](=O)[O-])cc1)Nc1ccc(N/C(=N\Nc2ccc([N+](=O)[O-])cc2)P(=O)(OC(C)C)OC(C)C)cc1
- GI50 (A498): 16.4 µM (inactive)
- GI50 (A549): 4.91 µM (inactive)
- GI50 (ACHN): 23.4 µM (inactive)
- GI50 (CAKI-1): 32.8 µM (inactive)
- GI50 (CCRF-CEM): 2.95 µM (inactive)
- GI50 (COLO 205): 5.2 µM (inactive)
- GI50 (DLD-1): 4.72 µM (inactive)
- GI50 (DMS-114): 9.51 µM (inactive)
- GI50 (DMS-273): 5.58 µM (inactive)
- GI50 (EKVX): 26.9 µM (inactive)
- GI50 (HCC 2998): 2.65 µM (inactive)
- GI50 (HCT-116): 4.15 µM (inactive)
- GI50 (HCT-15): 6.21 µM
- GI50 (HL-60): 20.9 µM (inactive)
- GI50 (HOP-62): > 100 µM (inactive)
- GI50 (HOP-92): > 100 µM (inactive)
- GI50 (IGROV-1): 4.43 µM (inactive)
- GI50 (K562): 4.79 µM (inactive)
- GI50 (KM-20L2): 14.9 µM (inactive)
- GI50 (KM12): 7.93 µM (inactive)
- GI50 (LOX IMVI): 12.8 µM (inactive)
- GI50 (LXFL 529): 19.6 µM (inactive)
- GI50 (M14): 14.5 µM (inactive)
- GI50 (M19-MEL): 82.4 µM (inactive)
- GI50 (MOLT-4): 2.58 µM (inactive)
- GI50 (Malme-3M): > 100 µM (inactive)
- GI50 (NCI-H226): 74.1 µM (inactive)
- GI50 (NCI-H23): 13.7 µM (inactive)
- GI50 (NCI-H460): 2.31 µM (inactive)
- GI50 (NCI-H522): 6.22 µM (inactive)
- GI50 (OVCAR-3): 70.1 µM (inactive)
- GI50 (OVCAR-4): 35.7 µM (inactive)
- GI50 (OVCAR-5): 71.8 µM (inactive)
- GI50 (OVCAR-8): 13.6 µM (inactive)
- GI50 (RPMI-8226): 5.24 µM (inactive)
- GI50 (SF-268): > 100 µM (inactive)
- GI50 (SF-539): 57.3 µM (inactive)
- GI50 (SK-MEL-28): > 100 µM (inactive)
- GI50 (SK-MEL-2): 48 µM (inactive)
- GI50 (SK-MEL-5): 6.98 µM (inactive)
- GI50 (SN12C): > 100 µM (inactive)
- GI50 (SNB-19): 27.4 µM (inactive)
- GI50 (SNB-75): 14.2 µM (inactive)
- GI50 (SR): 5.66 µM (inactive)
- GI50 (TK-10): 89.9 µM (inactive)
- GI50 (U-251): 13.2 µM (inactive)
- GI50 (UACC-257): 37.2 µM (inactive)
- GI50 (UACC-62): 2.2 µM (inactive)
- GI50 (UO-31): 21.4 µM (inactive)
- GI50 (XF498): > 100 µM (inactive)

SMILES: Cc1ccc(NC(=O)C(=O)C(C2C(C)CC(=O)C2CC(=O)O)[N+](=O)[O-])cc1 (configuration not stated)
- GI50 (786-0): > 100 µM (inactive)
- GI50 (A498): > 100 µM (inactive)
- GI50 (A549): > 100 µM (inactive)
- GI50 (ACHN): > 100 µM (inactive)
- GI50 (CAKI-1): > 100 µM (inactive)
- GI50 (CCRF-CEM): > 100 µM (inactive)
- GI50 (COLO 205): > 100 µM (inactive)
- GI50 (DLD-1): > 100 µM (inactive)
- GI50 (DMS-114): > 100 µM (inactive)
- GI50 (EKVX): > 100 µM (inactive)
- GI50 (HCC 2998): > 100 µM (inactive)
- GI50 (HCT-116): > 100 µM (inactive)
- GI50 (HCT-15): > 100 µM
- GI50 (HL-60): > 100 µM (inactive)
- GI50 (HOP-62): > 100 µM (inactive)
- GI50 (HOP-92): > 100 µM (inactive)
- GI50 (HT-29): > 100 µM (inactive)
- GI50 (IGROV-1): > 100 µM (inactive)
- GI50 (K562): > 100 µM (inactive)
- GI50 (KM-20L2): > 100 µM (inactive)
- GI50 (KM12): > 100 µM (inactive)
- GI50 (LOX IMVI): > 100 µM (inactive)
- GI50 (LXFL 529): > 100 µM (inactive)
- GI50 (M14): > 100 µM (inactive)
- GI50 (MOLT-4): > 100 µM (inactive)
- GI50 (Malme-3M): > 100 µM (inactive)
- GI50 (NCI-H226): > 100 µM (inactive)
- GI50 (NCI-H23): > 100 µM (inactive)
- GI50 (NCI-H460): > 100 µM (inactive)
- GI50 (OVCAR-3): > 100 µM (inactive)
- GI50 (OVCAR-4): > 100 µM (inactive)
- GI50 (OVCAR-5): > 100 µM (inactive)
- GI50 (OVCAR-8): > 100 µM (inactive)
- GI50 (RPMI-8226): > 100 µM (inactive)
- GI50 (RXF 393): > 100 µM (inactive)
- GI50 (SF-268): > 100 µM (inactive)
- GI50 (SF-295): > 100 µM (inactive)
- GI50 (SF-539): > 100 µM (inactive)
- GI50 (SK-MEL-28): > 100 µM (inactive)
- GI50 (SK-MEL-2): > 100 µM (inactive)
- GI50 (SK-MEL-5): > 100 µM (inactive)
- GI50 (SK-OV-3): > 100 µM (inactive)
- GI50 (SN12C): > 100 µM (inactive)
- GI50 (SNB-19): > 100 µM (inactive)
- GI50 (SNB-75): > 100 µM (inactive)
- GI50 (SNB-78): > 100 µM (inactive)
- GI50 (SR): > 100 µM (inactive)
- GI50 (SW-620): > 100 µM (inactive)
- GI50 (TK-10): > 100 µM (inactive)
- GI50 (U-251): > 100 µM (inactive)
- GI50 (UACC-257): > 100 µM (inactive)
- GI50 (UACC-62): > 100 µM (inactive)
- GI50 (UO-31): > 100 µM (inactive)
- GI50 (XF498): > 100 µM (inactive)
